Measurements: PMC5733478, “A Non-imaging High Throughput Approach to Chemical Library Screening at the Unmodified Adenosine-A3 Receptor in Living Cells” (Frontiers in Pharmacology, 2017)
Where a name gives a salt, the structure may show the parent alone.

biological target: T1, human A3AR (Homo sapiens, UniProt P0DMS8); test: LOPAC library primary screen: single concentration (10 μM) inhibition of 25 nM CA200645 binding, PHERAstar FS; conditions: not given
T1 construct: expressed in transfected cells
T1 sequence (P0DMS8 1-318): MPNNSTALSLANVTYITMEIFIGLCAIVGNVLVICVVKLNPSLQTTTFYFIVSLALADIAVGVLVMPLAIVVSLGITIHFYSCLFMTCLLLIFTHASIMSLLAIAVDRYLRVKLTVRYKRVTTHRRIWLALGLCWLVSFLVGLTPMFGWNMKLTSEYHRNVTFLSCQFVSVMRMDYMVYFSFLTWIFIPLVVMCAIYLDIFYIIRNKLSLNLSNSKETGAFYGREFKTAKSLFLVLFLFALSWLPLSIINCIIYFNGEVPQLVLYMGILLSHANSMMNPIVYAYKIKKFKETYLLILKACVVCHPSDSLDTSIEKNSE

Compound | % 25 nM CA200645 binding [%] | hit in LOPAC primary screen (inhibited the binding of CA200645 by >40%)
O.c1cnc2c(c1)ccc1cccnc12 [1,10-Phenanthroline monohydrate] | 90.7 ± 13.0 | 
COc1ccccc1N1CCN(CCN(C(=O)c2ccc(F)cc2)c2ccccn2)CC1.Cl.Cl [p-MPPF dihydrochloride] | 117.8 ± 19.4 | 
CC(=O)NNC(=O)N1Cc2ccccc2Oc2ccc(Cl)cc21 [SC 19220] | 105.0 ± 9.4 | 
CN(N=O)c1ccc(O)c(O)c1 [Me-3,4-dephostatin] | 87.0 ± 11.0 | 
Cc1c(OCC(F)(F)F)ccnc1C[S+]([O-])c1nc2ccccc2[nH]1 (stereo not drawn) [Lansoprazole] | 100.3 ± 13.0 | 
CC(N)(Cc1ccc(O)cc1)C(=O)O (racemic) [DL-alpha-Methyl-p-tyrosine] | 102.4 ± 5.8 | 
NC(=O)c1cnccn1 [Pyrazinecarboxamide] | 88.9 ± 26.1 | 
CC(C)N(CCC(=O)c1ccc2ccccc2c1)Cc1ccccc1.Cl [ZM 39923 hydrochloride] | 115.5 ± 23.0 | 
CN(C)CCCN1c2ccccc2CCc2ccc(Cl)cc21 [Clomipramine hydrochloride] | 99.4 ± 3.8 | 
OC[C@H]1O[C@@H](n2cnc3c(NC4CCCC4)ncnc32)[C@H](O)[C@@H]1O [N6-Cyclopentyladenosine] | 69.6 ± 6.1 | 
C[C@H](N)CN1CCc2ccc(Br)cc21.C[C@H](N)CN1CCc2ccc(Br)cc21.O=C(O)/C=C/C(=O)O [VER-3323 hemifumarate salt] | 107.7 ± 7.9 | 
Nc1ccc(N2C(=O)c3ccccc3C2=O)c(Cl)c1 [N-(4-Amino-2-chlorophenyl)phthalimide] | 91.1 ± 7.1 | 
CCc1cc(Cl)c(O)c(C(=O)NC[C@@H]2CCCN2CC)c1OC.Cl [S-(-)-Eticlopride hydrochloride] | 96.8 ± 1.1 | 
CN1CCC[C@@H]1Cc1c[nH]c2ccc(CCS(=O)(=O)c3ccccc3)cc12 [Eletriptan hydrobromide] | 96.9 ± 5.3 | 
COc1cc([C@@H]2c3cc4c(cc3[C@H](O)[C@H]3COC(=O)[C@H]23)OCO4)cc(OC)c1OC [Podophyllotoxin] | 97.7 ± 17.3 | 
COc1ccc2c(c1OC)C(=O)O[C@@H]2[C@H]1c2c(cc3c(c2OC)OCO3)CCN1C.Cl [Noscapine hydrchloride] | 114.6 ± 20.4 | 
CNC1(C)C2CCC(C2)C1(C)C (stereo not drawn) [Mecamylamine hydrochloride] | 65.4 ± 10.0 | 
C#CCN(C)Cc1ccccc1 [Pargyline hydrochloride] | 102.9 ± 12.8 | 
NC(CCCCCP(=O)(O)O)C(=O)O (racemic) [(±)-2-Amino-7-phosphonoheptanoic acid] | 52.2 ± 10.8 | 
NC/C=C/C(=O)O [(E)-4-amino-2-butenoic acid] | 101.5 ± 12.6 | 

Compound | % 25 nM CA200645 binding [%] | hit in LOPAC primary screen (inhibited the binding of CA200645 by >40%)
Oc1ccc2c3c1O[C@H]1c4oc5ccccc5c4C[C@@]4(O)[C@@H](C2)N(CC2CC2)CC[C@]314 [Naltriben methanesulfonate] | 106.9 ± 8.0 | 
NC(=S)c1ccc[n+]([C@@H]2O[C@@H](COP(=O)([O-])OP(=O)(O)OC[C@H]3O[C@@H](n4cnc5c(N)ncnc54)C(OP(=O)([O-])O)[C@H]3O)C(O)C2O)c1.[Na+] (stereo partly drawn) [Thio-NADP sodium] | 101.4 ± 10.4 | 
Cl.NCCc1ccc(O)cc1 [4-Hydroxyphenethylamine hydrochloride] | 98.7 ± 19.0 | 
Cl.N[C@@H](CCC(=O)O)C(=O)O [L-Glutamic acid hydrochloride] | 113.0 ± 19.3 | 
C[N+](C)(C)CC#CCN1CCCC1=O [Oxotremorine methiodide] | 101.3 ± 18.6 | 
Cc1nnc(SCC2=C(C(=O)O)N3C(=O)[C@@H](NC(=O)Cn4cnnn4)[C@H]3SC2)s1 [Cefazolin sodium] | 96.3 ± 4.6 | 
Nc1nc(N)c2nc(-c3ccccc3)c(N)nc2n1 [Triamterene] | 95.3 ± 10.4 | 
COc1ccc2[nH]cc(CCNC(C)=O)c2c1 [Melatonin] | 106.6 ± 11.6 | 
Nc1ncnc2c1ncn2[C@@H]1O[C@H](COP(=O)(O)CP(=O)(O)OP(=O)([O-])[O-])[C@H](O)C1O.[Li+].[Li+] (stereo partly drawn) | 102.3 ± 5.3 | 
C#C[C@]1(O)CC[C@H]2[C@@H]3CCC4=Cc5nc6nc7ccccc7n6cc5C[C@]4(C)[C@H]3CC[C@@]21C [WIN 62,577] | 67.3 ± 5.6 | 
O=C1c2c(O)ccc(O)c2C(=O)c2c(NCCNCCO)ccc(NCCNCCO)c21 [Mitoxantrone] | 88.5 ± 12.7 | 
COC(=O)[C@@H](N)CCCN=C(N)N[N+](=O)[O-].Cl | 109.0 ± 16.7 | 
CN1CCN2c3ccccc3Cc3ccccc3C2C1 (stereo not drawn) [Mianserin hydrochloride] | 92.0 ± 7.7 | 
NCCc1ccc(O)c(O)c1 [Dopamine hydrochloride] | 93.0 ± 11.1 | 
NC(=O)c1ncn([C@@H]2O[C@H](CO)[C@@H](O)[C@H]2O)c1O [Mizoribine] | 101.6 ± 4.8 | 
C[C@H](O)C(=O)C1=Nc2c(nc(N)[nH]c2=O)NC1 [Sepiapterin] | 97.4 ± 20.7 | 
NC(=O)C1=CN([C@@H]2O[C@H](COP(=O)([O-])OP(=O)([O-])OC[C@H]3O[C@@H](n4cnc5c(N)ncnc54)[C@H](OP(=O)([O-])[O-])[C@@H]3O)[C@@H](O)[C@H]2O)C=CC1.[Na+].[Na+].[Na+].[Na+] [NADPH tetrasodium] | 112.0 ± 13.1 | 
C[C@H](Cc1ccc(OCC(=O)[O-])cc1)NC[C@H](O)c1cccc(Cl)c1.[Na+] [BRL 37344 sodium] | 98.2 ± 9.4 | 
C[C@H](Cc1ccccc1)Nc1ncnc2c1ncn2[C@@H]1O[C@H](CO)[C@@H](O)[C@H]1O [R-PIA, reference compound] |  | not identified as hits
NCCCCN=C(N)N [Agmatine sulfate] | 97.6 ± 11.6 | 

Compound | % 25 nM CA200645 binding [%] | hit in LOPAC primary screen (inhibited the binding of CA200645 by >40%)
COc1ccc(-c2cc3nccn3c(Nc3ncccc3C(N)=O)n2)cc1OC.Cl.O [BAY 61-3606 hydrochloride hydrate] | 83.8 ± 10.8 | 
Clc1ccc2c(N3CCN(CCCN4CCN(c5ccnc6cc(Cl)ccc56)CC4)CC3)ccnc2c1 [Piperaquine tetraphosphate tetrahydrate] | 96.8 ± 7.2 | 
CC[C@@H](C(N)=O)N1CCCC1=O [Levetiracetam] | 102.2 ± 9.6 | 
O=C[C@H](Cl)[C@@H](O)[C@H](O)[C@H](O)CO [2-Chloro-2-deoxy-D-glucose] | 89.9 ± 5.0 | 
COc1ccccc1N1CCN(CCN(C(=O)C2CCCCC2)c2ccccn2)CC1.O=C(O)/C=C\C(=O)O [WAY-100635 maleate] | 90.8 ± 17.8 | 
Cn1cnc([N+](=O)[O-])c1Sc1ncnc2nc[nH]c12 [Azathioprine] | 93.9 ± 5.0 | 
O=C(O)CCC(=O)N1CCC[C@H]1C(=O)O [N-Succinyl-L-proline] | 81.8 ± 11.2 | 
trans-(±)-ACPD | 83.6 ± 13.4 | 
O=C1NC(=O)/C(=C/c2ccc(-c3ccc(F)cc3O)o2)S1 [AS-252424] | 45.8 ± 20.9 | 
COC[C@H]1OC(=O)c2coc3c2[C@@]1(C)C1=C(C3=O)[C@@H]2CCC(=O)[C@@]2(C)C[C@H]1OC(C)=O [Wortmannin from Penicillium funiculosum] | 82.6 ± 17.7 | 
Nc1nc(Nc2ccccc2)nc2c1ncn2[C@@H]1O[C@H](CO)[C@@H](O)[C@H]1O [CV1808, 2-phenylaminoadenosine, reference compound] | 55.3 ± 19.9 | 
COc1cccc(OC)c1OCCNCC1COc2ccccc2O1.Cl (stereo not drawn) [WB-4101 hydrochloride] | 76.0 ± 5.8 | 
CCN(CC)CCCC(C)Nc1c2ccc(Cl)cc2nc2ccc(OC)cc12 (stereo not drawn) [Quinacrine dihydrochloride] | 98.2 ± 4.9 | 
CN1C2CCC1CC(OC(=O)c1c[nH]c3ccccc13)C2.Cl (stereo not drawn) | 109.6 ± 9.2 | 
CCCC(CCC)C(=O)O [Valproic acid sodium] | 99.8 ± 9.6 | 
COc1cc(/C=C(\C#N)C(=O)c2ccc(O)c(O)c2)cc(I)c1O [I-OMe-Tyrphostin AG 538] | 71.3 ± 34.4 | 
O=c1oc(Cl)c(Cl)c2ccccc12 [3,4-Dichloroisocoumarin] | 95.8 ± 9.3 | 
COc1ccc(/C=C2\COc3ccc(C)cc3C2=O)cc1O [IMS2186] | 95.7 ± 10.2 | 

same assay, conditions: 10 μM compound, 25 nM CA200645, A3AR CHO cells

Compound | hit in LOPAC primary screen (inhibited the binding of CA200645 by >40%)
Cn1c(=O)c2c(nc(/C=C/c3cccc(Cl)c3)n2C)n(C)c1=O [CSC, reference compound] | not identified as hits
Nc1nc(Nc2ccccc2)nc2c1ncn2[C@@H]1O[C@H](CO)[C@@H](O)[C@H]1O [CV1808, 2-phenylaminoadenosine, reference compound] | identified

same assay, conditions: % of 25 nM CA200645 binding in the presence of 10 μM compound, LOPAC full screen, A3AR CHO cells

Compound | % Total CA200645 binding [%]
Nc1nc(Nc2ccccc2)nc2c1ncn2[C@@H]1O[C@H](CO)[C@@H](O)[C@H]1O [CV1808, 2-phenylaminoadenosine, reference compound] | 53.3 ± 19.9

same assay, conditions: % of control wells (1% DMSO and 25 nM CA200645); compounds at 10 µM; whole live cells expressing the A3AR; mean ± SD, three experiments in duplicate

Compound | % 25 nM CA200645 binding [%]
CN(C(=O)CCCOc1ccc2[nH]c(=O)ccc2c1)C1CCCCC1 [Cilostamide] | 75.9 ± 3.4

same assay, conditions: compounds tested at 10 µM; % of control wells (1% DMSO and 25 nM CA200645); whole live cells expressing the A3AR; mean ± SD, three experiments in duplicate

Compound | % 25 nM CA200645 binding [%]
Nc1ncnc2c1ncn2[C@@H]1O[C@H](CO)[C@@H](O)[C@H]1O [adenosine] | 92.3 ± 7.9
CC[C@H](C)C(=O)O[C@H]1CCC=C2C=C[C@H](C)[C@H](CC[C@@H]3C[C@@H](O)CC(=O)O3)[C@H]21 [Mevastatin] | 107.1 ± 10.0
NCCS(=O)(=O)O [Taurine] | 106.8 ± 10.4
CSc1ccc2c(c1)C(N1CCN(C)CC1)Cc1ccccc1S2 (stereo not drawn) [Methiothepin mesylate] | 112.2 ± 9.4
